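Method: 48-hour compound exposure of cells in 96-well plates, five concentrations, linear interpolation of endpoints. GI50 = concentration required for 50% inhibition of growth. The concentration for full growth arrest is given as TGI.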
Assays:
Assay in all cases: DTP human tumour cell line panel, 48 h
SW-620 colon = system: SW-620 colon
TK-10 renal = system: TK-10 renal
RXF 393 renal = system: RXF 393 renal
IGROV1 ovarian = system: IGROV1 ovarian
NCI-H23 lung = system: NCI-H23 lung
SK-MEL-5 melanoma = system: SK-MEL-5 melanoma
A549 NSCLC = system: A549 NSCLC
SF-539 CNS = system: SF-539 CNS
U251 CNS = system: U251 CNS
RPMI-8226 leukemia = system: RPMI-8226 leukemia

SMILES | TGI (SW-620 colon) [µM] | TGI (TK-10 renal) [µM] | TGI (RXF 393 renal) [µM] | TGI (IGROV1 ovarian) [µM] | TGI (NCI-H23 lung) [µM] | TGI (SK-MEL-5 melanoma) [µM] | TGI (A549 NSCLC) [µM] | TGI (SF-539 CNS) [µM] | TGI (U251 CNS) [µM] | GI50 (SW-620 colon) [µM] | GI50 (TK-10 renal) [µM] | GI50 (RXF 393 renal) [µM] | GI50 (IGROV1 ovarian) [µM] | GI50 (NCI-H23 lung) [µM] | GI50 (SK-MEL-5 melanoma) [µM] | GI50 (SF-539 CNS) [µM] | GI50 (U251 CNS) [µM] | GI50 (RPMI-8226 leukemia) [µM] | TGI (RPMI-8226 leukemia) [µM] | GI50 (A549 NSCLC) [µM]
CSc1cc(C(C)(C)C)ccc1C(O)c1ccc(C(C)(C)C)cc1SC | 23.9 | 30.6 | 24.9 | 26.2 | 29.8 | 27.5 | 24.4 | 32.3 | 27.1 | – | – | – | – | – | – | – | – | – | – | –
O=C(Nc1ccc(Cl)cc1)N1CCN(c2ccc3nncn3n2)CC1 | > 100 | > 100 | > 100 | > 100 | > 100 | > 100 | – | > 100 | > 100 | 60.8 | 43 | > 100 | > 100 | 42.3 | 37.3 | > 100 | > 100 | 29.7 | > 100 | –
CC(=N\O)/C(C)=N/O.CC(=N\O)/C(C)=N/O.[Fe].[NH2-].c1c[nH]cn1 | > 100 | > 100 | > 100 | > 100 | – | > 100 | > 100 | > 100 | > 100 | > 100 | > 100 | > 100 | > 100 | – | > 100 | > 100 | > 100 | > 100 | > 100 | > 100
O=C(c1ccc(Nc2nccc(NCCCCNc3ccnc4cc(Cl)ccc34)n2)cc1)N1CCCCC1 | 2.17 | 4.83 | 2.82 | 9.08 | 15.7 | 2.98 | 11.9 | – | 3.38 | 0.589 | 2.16 | 1.33 | 2.83 | 2.95 | 1.61 | – | 1.53 | 0.999 | 4.44 | 1.3
CC(=O)[CH-]C(=O)c1ccccc1.CC(=O)[CH-]C(=O)c1ccccc1.CC(=O)[CH-]C(=O)c1ccccc1.[Br-].[Zr+4] | > 100 | > 100 | > 100 | > 100 | > 100 | > 100 | > 100 | – | > 100 | > 100 | > 100 | > 100 | > 100 | > 100 | > 100 | – | 67.7 | 72.5 | > 100 | > 100
Nc1cc(N)c2nc(-c3ccccc3)c(NCc3ccc(Cl)c(Cl)c3)nc2c1 | 9.88 | 30.5 | 16.8 | 5.95 | 27.8 | 10.7 | 27.4 | 18.8 | – | 3.26 | 12.8 | 3.06 | 1.97 | 14.2 | 3.48 | 4.6 | – | 1.66 | 3.72 | 10.8
C=CCC1C(=O)CC2(C)C(CC=C)C(=O)CC12C (centres undefined) | > 100 | > 100 | – | > 100 | > 100 | > 100 | > 100 | > 100 | > 100 | – | – | – | – | – | – | – | – | – | > 100 | –
CCOP(=O)(OCC)C(NC(c1ccccc1)c1ccccc1)c1ccc(C(C)C)cc1 (centres undefined) | 20.3 | 14.4 | – | – | 20.7 | 7.86 | 23.2 | 30 | 13.9 | 4.08 | 3.32 | – | – | 6.38 | 3.35 | 13.1 | 3.63 | 2.65 | 9.99 | 4.84
